{
  "source": "patent US20240269238A1",
  "about": "“Therapeutic Regimens and Methods for Reducing Body Weight in a Subject with Fatty Liver Disease using a GLP-1R and GCGR Agonist” (Spitfire Pharma LLC, priority 2022, published 2024)",
  "key": {"[1]": {"system": "plasma lipids and lipoproteins", "assay": "Phase 1 study NCT0456124 (Example 2): lipoprotein profiling by NMR and lipidomic profiling by UHPLC-MS", "format": "in vivo, human", "procedure": "To test the lipid-lowering effects of pemvidutide, an analysis of Phase I clinical trial (NCT0456124) data was carried out. The subjects with overweight/obesity (BMI 25-40 kg/m^2) were randomized at 1 site in Australia (NCT0456124). Subjects were randomized 4:1 pemvidutide:placebo, with placebos pooled. […] Lipoprotein and glycoprotein profiling covering 33 lipoprotein related parameters was performed by ^1H-NMR on fasting plasma samples obtained at Day −1 (baseline), Day 43, and Day 84 from the 34 subjects who completed NCT0456124. Lipidomic profiling covering 600 lipid species was performed by ultra-high performance liquid chromatography-mass spectrometry on fasting plasma samples obtained at Day −1 (baseline), Day 43, and Day 84 from the 34 subjects who completed NCT0456124. For the lipid profiling, plasma fractionation was performed either using methanol to extract fatty acyls, bile acids, steroids, and lyso-glycerophospholipids, or using a chloroform/methanol mix to extract glycerolipids, cholesteryl esters, sphingolipids, and glycerophospholipids. Lipid classification followed the classification system proposed by Fahy et al. (J. Lipid Res. 2005; 46:839-861) and the LIPID MAPS initiative (http://www.lipidmaps.org) (see FIG. 8).\nThe color code represents the log 2 (robust fold-change) with blue colors denoting reduced lipoproteins (negative fold-changes) and red colors denoting increased lipoproteins (positive fold-changes).\nGiven the observed changes in the total cholesterol, triglycerides and lipoproteins, an evaluation of the serum lipid composition covering 600 lipid species at Day −1 (baseline), Day 43, and Day 84 from the 34 subjects who completed NCT0456124 was performed. Results are presented in FIG. 10 as log 2 pairwise fold change with blue colors denoting a reduction in the lipid relative to baseline, and red an increase. The grey/black bars indicate significant p-values of Wilcoxon test.\nThe horizontal dashed line represents the lower limit of significance, while the vertical lines show a fold-change from baseline of ±0.75 on the log 2 scale."}, "[2]": {"target": "glucagon-like peptide 1 receptor (GLP-1R) (Homo sapiens, UniProt P43220)", "sequence (P43220 24-463)": "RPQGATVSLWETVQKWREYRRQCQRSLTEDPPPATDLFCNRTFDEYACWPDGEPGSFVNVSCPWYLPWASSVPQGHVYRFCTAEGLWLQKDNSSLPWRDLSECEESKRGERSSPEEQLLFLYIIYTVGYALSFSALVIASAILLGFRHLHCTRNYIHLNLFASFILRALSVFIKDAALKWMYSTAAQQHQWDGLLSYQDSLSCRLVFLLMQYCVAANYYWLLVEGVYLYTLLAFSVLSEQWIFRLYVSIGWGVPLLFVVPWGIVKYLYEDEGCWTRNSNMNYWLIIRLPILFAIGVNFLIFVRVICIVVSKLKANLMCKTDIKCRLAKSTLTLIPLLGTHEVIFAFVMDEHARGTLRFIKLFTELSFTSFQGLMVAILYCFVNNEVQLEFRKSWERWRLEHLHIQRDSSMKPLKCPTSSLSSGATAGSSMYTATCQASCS", "assay": "cellular assay, agonist activity at GLP-1R", "format": "cell-based", "description": "This disclosure relates to a dual agonist peptide(s) as well as pharmaceutical dosage formulations comprising, and methods for using, the same. The dual agonist peptides have affinity for, and in preferred embodiments about equal affinity for, glucagon-like peptide 1 receptor (GLP-1R) and glucagon receptor (GCGR), as may be determined using a cellular assay. In some embodiments, this disclosure provides pharmaceutical dosage formulations configured to induce weight loss in a human being with fatty liver disease. In some embodiments, the human being may, or may not, suffer from type 2 diabetes. In some embodiments, the disclosure provides pharmaceutical dosage formulations configured to reduce pathogenic plasma lipid mediators. As used herein, “pathogenic” serum lipid mediators, included but are not limited to the following reactive lipid species: malondialdehyde (MDA), isolevuglandins (IsoLG), methyglyoxal (MGO), 4-oxononenal (ONE), and 4-hydroxynonenal (HNE). Oxidized phospholipids include 1-palmitoyl-2-oxovaleroyl-sn-glycero-3-phosphorylcholine (POVPC), 1-O-alkyl-2-azelaoyl-sn-glycero-3-phophorylcholine (azPAF), 1-(Palmitoyl)-2-(5-keto-6-octene-dioyl) phosphatidylcholine (KOdiA-PC), 1-palmitoyl-2-F2-isoprostane-sn-glycero-3-phosphocholine (F2IsoP-PC), and 1-palmitoyl-2-(5,6)-epoxyisoprostane E2-sn-glycero-3-phosphocholine (PEIPC). […]"}},
  "data": [
    {"smiles": "CC[C@H](C)[C@H](NC(=O)[C@H](Cc1ccccc1)NC(=O)[C@H](CCC(=O)O)NC(=O)[C@@H]1CCCCNC(=O)CC[C@H](NC(=O)[C@H](CC(=O)O)NC(=O)[C@H](CC(C)C)NC(=O)[C@H](Cc2ccc(O)cc2)NC(=O)[C@H](CCCCN)NC(=O)[C@H](CO)NC(=O)[C@H](Cc2ccc(O)cc2)NC(=O)[C@H](CC(=O)O)NC(=O)[C@H](CO)NC(=O)[C@@H](NC(=O)[C@H](Cc2ccccc2)NC(=O)[C@@H](NC(=O)CNC(=O)[C@H](CCC(N)=O)NC(=O)C(C)(C)NC(=O)[C@@H](N)Cc2c[nH]cn2)[C@@H](C)O)[C@H](C)O)C(=O)N[C@@H](CCCCNC(=O)C2O[C@@H](OCCCCCCCCCCCCCCCCCC(=O)O)C(O)C(O)[C@@H]2O)C(=O)N[C@@H](C)C(=O)N[C@@H](C)C(=O)N1)C(=O)N[C@@H](CCC(N)=O)C(=O)N[C@@H](Cc1c[nH]c2ccccc12)C(=O)N[C@@H](CC(C)C)C(=O)N[C@@H](CC(C)C)C(=O)N[C@@H](CCC(N)=O)C(=O)N[C@H](C(N)=O)[C@@H](C)O", "note": "(some centres unmarked) [ALT-801, Pemvidutide]", "values": [
      {"measurement": "phosphatidyl-ethanolamine (PE) glycerophospholipids level", "setting": "[1]; 1.8 mg", "result": "significantly reduced atherosclerotic plaque forming phosphatidyl-ethanolamine (PE) glycerophospholipids level"},
      {"measurement": "pro-atherogenic lyso-PC levels", "setting": "[1]; 1.8 mg", "result": "significantly reduced pro-atherogenic lyso-PC levels"},
      {"measurement": "number of VLDL and LDL particles and of smaller HDL particles (2D-NMR)", "setting": "[1]; Day 43 and Day 84 vs Day -1", "result": "tend to be reduced"},
      {"measurement": "serum lipid levels (glycerolipids, glycerophospholipids, sphingolipids)", "setting": "[1]; within 12 weeks of treatment", "result": "significantly reduced serum lipid levels"},
      {"measurement": "EC50", "setting": "[2]", "result": "~0.04", "unit": "nM"}
    ]}
  ]
}
